{"source": "paper PMC12133000", "about": "(PLOS One, 2025)", "experiment": "Pharmacokinetics of rivaroxaban in rats after avitinib or gefitinib pretreatment", "type": "in vivo, Sprague–Dawley (SD) rats", "details": "male, Sprague-Dawley, rat, plasma, oral", "protocol": "Eighteen male Sprague–Dawley (SD) rats weighing 300 ± 20 g were provided by the Experimental Animal Center of Wenzhou Medical University (Wenzhou, China) and kept under controlled conditions at a temperature of 23 ± 2 °C, relative humidity of 50 ± 10%, and 12 h light–dark cycle. Eighteen male SD rats were randomly assigned to three groups: avitinib, gefitinib, and control, with six rats per group. Prior to the experiment, the rats were not administered any other medications and fasted for 12 h. The experimental procedures and protocols adhered to Animal Ethics standards and were approved by the Animal Care and Use Committee of Wenzhou Medical University (approval no. wydw2019–650). All rats were anesthetized with sodium pentobarbital (40mg/kg, i.p) to relieve pain. The rats were killed through cervical dislocation.\nPrior to the experiment in vivo, the six rats in the avitinib group were administered 30 mg/kg avitinib and 0.5% sodium carboxymethyl cellulose (CMC-Na) solution by gavage daily for 7 d. […] The supernatant was collected and stored at −80 °C. After thawing, 50 μL of plasma was extracted; 100 μL of acetonitrile solution containing midazolam (200 ng/mL) was then added to induce protein precipitation. After vortexing for 30 s and centrifuging at 13,000 rpm for 5 min, the […].\nAll assays were performed in triplicate, and the results are expressed as mean ± standard deviation. DAS software v. […] SPSS v. 25.0 (IBM, NY, USA) was used for data processing. Student’s t-tests were used to detect differences between groups. Differences with p < 0.05 were considered statistically significant.", "note": "Like-named read-outs stand apart in the source and are kept apart here.", "data": [{"smiles": "O=C(NC[C@H]1CN(c2ccc(N3CCOCC3=O)cc2)C(=O)O1)c1ccc(Cl)s1", "note": "[rivaroxaban, Rivaroxaban]", "values": [{"measurement": "concentration at 6 h", "setting": "10 mg/kg, rivaroxaban ng/ml mean, control (rivaroxaban alone) group, mean of rats 13-18, time 6", "value": 141, "unit": "ng/mL"}, {"measurement": "concentration at 8 h", "setting": "10 mg/kg, rivaroxaban ng/ml mean, control (rivaroxaban alone) group, mean of rats 13-18, time 8", "value": 93, "unit": "ng/mL"}, {"measurement": "concentration at 12 h", "setting": "10 mg/kg, rivaroxaban ng/ml mean, control (rivaroxaban alone) group, mean of rats 13-18, time 12", "value": 76.8, "unit": "ng/mL"}, {"measurement": "concentration at 0.25 h", "setting": "10 mg/kg, rivaroxaban ng/ml, 对照 (control, rivaroxaban alone) group, individual rats 13-18, time 0.25", "value": 305, "unit": "ng/mL"}, {"measurement": "concentration at 0.5 h", "setting": "10 mg/kg, rivaroxaban ng/ml, 对照 (control, rivaroxaban alone) group, individual rats 13-18, time 0.5", "value": 434, "unit": "ng/mL"}, {"measurement": "concentration at 1 h", "setting": "10 mg/kg, rivaroxaban ng/ml, 对照 (control, rivaroxaban alone) group, individual rats 13-18, time 1", "value": 458, "unit": "ng/mL"}, {"measurement": "concentration at 4 h", "setting": "10 mg/kg, rivaroxaban ng/ml, 对照 (control, rivaroxaban alone) group, individual rats 13-18, time 4", "value": 190, "unit": "ng/mL"}, {"measurement": "concentration at 12 h", "setting": "gefitinib group, Mean, read-out: C_last", "value": 2070, "unit": "ng/mL"}, {"measurement": "concentration at 5 min", "setting": "plasma concentration of rivaroxaban, 5 min, avitinib group, Mean", "value": 284, "unit": "ng/mL"}, {"measurement": "concentration at 5 min", "setting": "plasma concentration of rivaroxaban, 5 min, avitinib group, single rats No1-No6", "value": 237, "unit": "ng/mL"}, {"measurement": "concentration at 5 min", "setting": "plasma concentration of rivaroxaban, 5 min, gefitinib group, Mean", "value": 626, "unit": "ng/mL"}, {"measurement": "concentration at 0.25 h", "setting": "plasma concentration of rivaroxaban, 0.25 h, avitinib group, Mean", "value": 588, "unit": "ng/mL"}, {"measurement": "concentration at 0.25 h", "setting": "plasma concentration of rivaroxaban, 0.25 h, gefitinib group, Mean", "value": 1740, "unit": "ng/mL"}, {"measurement": "concentration at 0.25 h", "setting": "plasma concentration of rivaroxaban, 0.25 h, gefitinib group, single rats No1-No6", "value": 1690, "unit": "ng/mL"}, {"measurement": "concentration at 0.5 h", "setting": "plasma concentration of rivaroxaban, 0.5 h, avitinib group, Mean", "value": 1090, "unit": "ng/mL"}, {"measurement": "concentration at 0.5 h", "setting": "plasma concentration of rivaroxaban, 0.5 h, gefitinib group, Mean", "value": 3670, "unit": "ng/mL"}, {"measurement": "concentration at 0.5 h", "setting": "plasma concentration of rivaroxaban, 0.5 h, gefitinib group, single rats No1-No6", "value": 4080, "unit": "ng/mL"}, {"measurement": "concentration at 1 h", "setting": "plasma concentration of rivaroxaban, 1 h, avitinib group, Mean", "value": 1730, "unit": "ng/mL"}, {"measurement": "concentration at 1 h", "setting": "plasma concentration of rivaroxaban, 1 h, gefitinib group, Mean", "value": 5580, "unit": "ng/mL"}, {"measurement": "concentration at 1 h", "setting": "plasma concentration of rivaroxaban, 1 h, gefitinib group, single rats No1-No6", "value": 6110, "unit": "ng/mL"}, {"measurement": "concentration at 2 h", "setting": "plasma concentration of rivaroxaban, 2 h, avitinib group, Mean", "value": 1650, "unit": "ng/mL"}, {"measurement": "concentration at 2 h", "setting": "plasma concentration of rivaroxaban, 2 h, gefitinib group, Mean", "value": 7180, "unit": "ng/mL"}, {"measurement": "concentration at 3 h", "setting": "plasma concentration of rivaroxaban, 3 h, avitinib group, Mean", "value": 1390, "unit": "ng/mL"}, {"measurement": "concentration at 3 h", "setting": "plasma concentration of rivaroxaban, 3 h, gefitinib group, Mean", "value": 7690, "unit": "ng/mL"}, {"measurement": "concentration at 3 h", "setting": "plasma concentration of rivaroxaban, 3 h, gefitinib group, single rats No1-No6", "value": 6480, "unit": "ng/mL"}, {"measurement": "concentration at 4 h", "setting": "plasma concentration of rivaroxaban, 4 h, avitinib group, Mean", "value": 1010, "unit": "ng/mL"}, {"measurement": "concentration at 4 h", "setting": "plasma concentration of rivaroxaban, 4 h, gefitinib group, Mean", "value": 7800, "unit": "ng/mL"}, {"measurement": "concentration at 4 h", "setting": "plasma concentration of rivaroxaban, 4 h, gefitinib group, single rats No1-No6", "value": 6780, "unit": "ng/mL"}, {"measurement": "concentration at 6 h", "setting": "plasma concentration of rivaroxaban, 6 h, avitinib group, Mean", "value": 538, "unit": "ng/mL"}, {"measurement": "concentration at 6 h", "setting": "plasma concentration of rivaroxaban, 6 h, gefitinib group, Mean", "value": 5500, "unit": "ng/mL"}, {"measurement": "concentration at 6 h", "setting": "plasma concentration of rivaroxaban, 6 h, gefitinib group, single rats No1-No6", "value": 5830, "unit": "ng/mL"}, {"measurement": "concentration at 8 h", "setting": "plasma concentration of rivaroxaban, 8 h, avitinib group, Mean", "value": 448, "unit": "ng/mL"}, {"measurement": "concentration at 8 h", "setting": "plasma concentration of rivaroxaban, 8 h, gefitinib group, Mean", "value": 3710, "unit": "ng/mL"}, {"measurement": "concentration at 8 h", "setting": "plasma concentration of rivaroxaban, 8 h, gefitinib group, single rats No1-No6", "value": 4960, "unit": "ng/mL"}, {"measurement": "concentration at 12 h", "setting": "plasma concentration of rivaroxaban, 12 h, avitinib group, Mean", "value": 80.9, "unit": "ng/mL"}, {"measurement": "concentration at 12 h", "setting": "plasma concentration of rivaroxaban, 12 h, gefitinib group, Mean", "value": 1640, "unit": "ng/mL"}, {"measurement": "concentration at 24 h", "setting": "rivaroxaban ng/ml mean, 吉非替尼 (gefitinib) group, mean (four rats), time 24", "value": 144, "unit": "ng/mL"}, {"measurement": "concentration at 5 min", "setting": "rivaroxaban ng/ml mean, 吉非替尼 (gefitinib) group, mean of rats 7-12, time 0.0833", "value": 626, "unit": "ng/mL"}, {"measurement": "concentration at 0.25 h", "setting": "rivaroxaban ng/ml mean, 吉非替尼 (gefitinib) group, mean of rats 7-12, time 0.25", "value": 1740, "unit": "ng/mL"}, {"measurement": "concentration at 0.5 h", "setting": "rivaroxaban ng/ml mean, 吉非替尼 (gefitinib) group, mean of rats 7-12, time 0.5", "value": 3670, "unit": "ng/mL"}, {"measurement": "concentration at 1 h", "setting": "rivaroxaban ng/ml mean, 吉非替尼 (gefitinib) group, mean of rats 7-12, time 1", "value": 5580, "unit": "ng/mL"}, {"measurement": "concentration at 2 h", "setting": "rivaroxaban ng/ml mean, 吉非替尼 (gefitinib) group, mean of rats 7-12, time 2", "value": 7180, "unit": "ng/mL"}, {"measurement": "concentration at 3 h", "setting": "rivaroxaban ng/ml mean, 吉非替尼 (gefitinib) group, mean of rats 7-12, time 3", "value": 7690, "unit": "ng/mL"}, {"measurement": "concentration at 4 h", "setting": "rivaroxaban ng/ml mean, 吉非替尼 (gefitinib) group, mean of rats 7-12, time 4", "value": 7800, "unit": "ng/mL"}, {"measurement": "concentration at 6 h", "setting": "rivaroxaban ng/ml mean, 吉非替尼 (gefitinib) group, mean of rats 7-12, time 6", "value": 5500, "unit": "ng/mL"}, {"measurement": "concentration at 8 h", "setting": "rivaroxaban ng/ml mean, 吉非替尼 (gefitinib) group, mean of rats 7-12, time 8", "value": 3710, "unit": "ng/mL"}]}]}
